Laboratory results: patent US20250042968A1, “EPHRIN LIGAND MIMETIC PEPTIDES FOR THE TREATMENT OF NEURODEGENERATIVE DISEASES” (University of Miami, priority 2022, published 2025)

Key:
[1] = test system: isolated mouse RGCs; assay: Neurite outgrowth, long-term (6 days), Incucyte Zoom live cell imaging; format: cell-based
Experimental: Mouse retinal ganglion cells (RGC): Mouse R GCs were isolated as follows. […] Following dissociation, macrophage and endothelial cells were removed from the cell suspension by panning with the anti-macrophage antiserum (Accurate Chemical, Westbury, NY). Finally, RGCs were immunopanned in plates containing the antibody against Thy1.2 and were then released by incubation with trypsin solution. RGCs were grown on poly-L-lysine coated plates in serum-free Neurobasal media (Invitrogen, Carlsbad, CA), supplemented with B-27 supplement, CNTF (10 ng/ml), and BDNF (10 ng/ml).
mRGCs were used to analyze dendrite sprouting, axonal polarization and extension, and ephrin receptor phosphorylation following treatment with xEFN peptides. RGCs were isolated as described above and plated onto 24 well plates at a concentration of 4×10^4 cells/well for short-term (48 h) experiments, or into 96-well plates at a concentration of 1,000 cells/well for long-term (6 days) experiments in an Incucyte Zoom (Essen Biosciences) instrument for live cell imaging. […] For the short-tem experiment, cells were fixed in 4% paraformaldehyde for 5 minutes, permeabilized using 0.05% Triton X-100, blocked with 5% fetal bovine serum, and incubated with primary antibody against Tubulin Beta 3 Class III (TUBB3) overnight at 4° C. Cells were then washed 3×5 min with PBS and incubated with AlexaFluor488 secondary antibody for 2 h at room temperature. Cells were mounted using SlowFade Gold Antifade mounting media with DAPI (ThermoFisher) and imaged using an EVOS FL automated fluorescent microscope (ThermoFisher). Dendrite measurements and analysis was performed by a blinded investigator using ImageJ software and the Sholl analysis plugin. […] Neurite sprouting and extension were quantified using the automated Incucyte Zoom NeuroTrack Processing algorithm for real-time, label-free neurite segmentation and quantitation (FIG. 13).

[2] = test system: RGCs and visual function after optic neuropathy onset; assay: Ultrasonic shockwave optic nerve injury model (SI-TON): RGC survival, PERG, flash ERG; format: in vivo, mouse
Experimental: In this example, the effect of xEFN peptide administration on the visual function of mice in an animal model that more closely resembled the human manifestation and progression of visual dysfunction following the onset of optic neuropathy was assessed. […] Visual function was measured at 2 and 4 weeks post optic nerve injury in all groups using pattern electroretinogram (PERG) to measure RGC function, as well as flash electroretinogram (ERG) to assess rod and cone functionality.

[3] = test system: RGCs and optic nerve axons after optic nerve crush (ONC); assay: Mouse model of optic nerve crush (ONC), intravitreal xEFN peptides; format: in vivo; conditions: for RGC pool rescue / survival over PBS-treated controls: intravitreal, 4 weeks after injury; for regenerating axons compared to controls: starting at 100 μm past the injury site and throughout the analysis window
Experimental: Antagonizing forward Eph signaling has been proven beneficial in a number of CNS disorders (Neurogastroenterol Motil. 2020:e13782; Acta Neuropathol Commun. 2018; 6(1):111; Proc Natl Acad Sci USA. 2014 Jul. 8; 111(27):9959-64; Eur J Neurosci. 2014 Oct; 40(7):3021-31; Neuroscience. 2013 Jun. 25; 241:89-99). The use of xEFN peptides as multi-Eph receptor antagonists was evaluated in treating retinal degeneration induced by optic nerve crush (ONC). The ONC model is the most commonly used model for the study of glaucoma and other optic neuropathies. All animal experiments were performed in compliance with the National Institutes of Health (Bethesda, MD, USA) Guide for the Care and Use of Laboratory Animals and the ARVO Statement for the Use of Animals in Ophthalmic and Vision Research. Animal protocols were reviewed and approved by the Institutional Animal Care and Use Committee of the University of Miami. […] With the use of jeweler's forceps (Dumont No. 5; tip dimension, 0.1×0.06 mm), the optic nerve is then crushed for 10 seconds at a location 2 mm distal from its insertion point into the globe. […] […]. At 4 weeks post-injury, animals were euthanized and enucleated for extraction of the retinas and optic nerves. Retinas were stained by immunohistochemistry for TUBB3 and RGCs were manually counted in each animal. Optic nerves were placed into tissue clearing solution for 1 week and then imaged for the CTB-647 label as whole mounts using a Leica SP8 Laser Scanning Confocal microscope (Leica Microsystems). Axonal projections were quantified at 100 μm intervals along the optic nerve track for up to 2 mm past the crush site using the fluorometric intensity measurement and analysis tool in the Leica LAS X microscopy suite software package, using the contralateral nerve (not CTB-injected) as a background reading for 647 nm fluorometric intensity in each sample.

[4] = test system: mouse RGC growth cones; assay: RGC growth cone collapse analysis; format: cell-based; conditions: 500 nM, 4 days, mouse RGC cultures
Experimental: One of the first signs of neuronal dysfunction is axonal growth cone collapse, and it is one of the mechanisms through which Eph-receptors exert their repulsive stimuli for axonal guidance. […] At the 48 h time point, cells were stimulated by the addition of 2 μg of pre-clustered recombinant mouse EfnA5-His (R&D Systems) for 1 hour. Following this stimulation, cells were fixed in 4% paraformaldehyde for 5 minutes, permeabilized with 0.05% Triton X-100, and blocked with 5% FBS for 1 h. Cells were then incubated in primary antibody against TUBB3 overnight at 4° C., washed, and incubated in AlexaFluor 488-conjugated secondary for 2 h at room temperature. After washing, cell cytoskeleton was counterstained with AlexaFluor 594-conjugated phalloidin for 30 min at 37° C. (ThermoFisher) and mounted with SlowFade Gold Anti-fade media with DAPI. Cells were then imaged using an EVOS FL Auto fluorescent microscope. Images were analyzed in ImageJ by a blinded investigator and a growth cone collapse was calculated manually.

FTIKFQEFSPNLWGL [xEFN_RBD3]
neurite outgrowth compared to 1 μM xEFN_F1 peptide ([1]; 1 μM, 6-day period): significantly increased
neurite length over control cultures ([1]; 1 μM, after 32 hours of culture): statistically-significant increase
increase in overall neurite length over day 0 measurement ([1]; 1 μM, end of 6-day period): 424.68+/−4.47%
neurite outgrowth compared to EphB2- or EphB4-restricted targeting peptides SNEW and TYFD ([1]; equal concentrations): statistically significant increase
PERG amplitude over baseline recordings ([2]; 2 weeks post optic nerve injury): decline
visual response versus vehicle (PBS) treated animals ([2]; 4 week assessment): significantly better
RGC survival compared to vehicle treated controls ([2]; 4 weeks post injury): significant survival effect
visual function (PERG) at the 4 week assessment ([2]; 4 weeks post optic nerve injury): improved
RGC survival ([3]; 6 μg intravitreal twice (immediately after ONC and 7 days after), 4 weeks, compared to uninjured contralateral retina): 44.17+/−2.39%
axonal projections detected distal to the crush site ([3]; CTB labeled axons, 4 weeks post-ONC, analysis region 2000 μm): ≥ 2000 μm
RGC pool rescue / survival over PBS-treated controls [3]: significant rescue
RGC pool rescue / survival over PBS-treated controls ([3]; listed as xEFN_EBD3): significant RGC survival
regenerating axons compared to controls [3]: significant increase
regenerating axons compared to controls ([3]; listed as xEFN_EBD3): axonal regeneration
number of collapsed growth cones [4]: significant decrease
